Test results as given in publication PMC4654407 (Bioorganic & medicinal chemistry letters, 2015).
In brackets after ≈: the same amount, converted by molar mass.

Experiments:
[1] = Solubility in sodium phosphate buffer; assay type: physicochemical; conditions: pH 7.4
[2] = target: T1, recombinant purified human sEH (Homo sapiens, UniProt P34913); experiment: sEH inhibition, kinetic fluorescent assay with CMNPC substrate; assay type: biochemical
T1 sequence (P34913 1-555): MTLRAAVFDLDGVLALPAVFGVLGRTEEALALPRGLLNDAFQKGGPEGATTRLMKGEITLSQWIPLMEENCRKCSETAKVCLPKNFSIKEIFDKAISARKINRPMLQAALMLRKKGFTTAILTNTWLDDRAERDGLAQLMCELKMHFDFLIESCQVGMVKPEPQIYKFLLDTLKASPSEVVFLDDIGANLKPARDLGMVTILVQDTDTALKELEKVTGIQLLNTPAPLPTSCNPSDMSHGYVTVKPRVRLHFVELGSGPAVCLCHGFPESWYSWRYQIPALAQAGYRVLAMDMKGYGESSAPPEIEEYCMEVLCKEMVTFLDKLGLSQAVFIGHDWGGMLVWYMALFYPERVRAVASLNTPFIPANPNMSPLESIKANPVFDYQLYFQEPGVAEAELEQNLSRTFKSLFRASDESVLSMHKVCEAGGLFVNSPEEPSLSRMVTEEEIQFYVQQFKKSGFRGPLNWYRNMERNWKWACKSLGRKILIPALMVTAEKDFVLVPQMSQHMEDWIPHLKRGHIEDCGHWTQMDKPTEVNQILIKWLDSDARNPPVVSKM

Row | SMILES | solubility [1] [µM] | IC50 [2] [µM] | fold less active than corresponding 1,3-disubstituted urea ([2]; relative to 3f) [fold] | fold less potent ([2]; relative to 3d) [fold]
1 | Cc1ccc(-c2cc(CNC(=O)NCC34CC5CC(CC(C5)C3)C4)no2)cc1 [3a] | 75 to 100 (≈ 28.5 to 38 µg/mL) |  |  | 
2 | COc1ccc(-c2cc(CNC(=O)NCC34CC5CC(CC(C5)C3)C4)no2)cc1 [3b] | 100 to 125 (≈ 39.6 to 49.4 µg/mL) |  |  | 
3 | O=C(NCc1cc(-c2ccco2)on1)NCC12CC3CC(CC(C3)C1)C2 [3c] | 75 to 100 (≈ 26.7 to 35.5 µg/mL) |  |  | 
4 | Cc1cc(CNC(=O)NCC23CC4CC(CC(C4)C2)C3)on1 [3d] | 450 to 475 (≈ 137 to 144 µg/mL) | 0.0099 ± 0.0029 |  | 
5 | CC(C)c1cc(CNC(=O)NCC23CC4CC(CC(C4)C2)C3)on1 [3f] | 125 to 150 (≈ 41.4 to 49.7 µg/mL) |  |  | 
6 | O=C(NCc1cc(-c2cccc(F)c2)no1)NCC12CC3CC(CC(C3)C1)C2 [3g] | 75 to 100 (≈ 28.8 to 38.3 µg/mL) | 0.0137 ± 0.003 |  | 
7 | CC(C)c1cc(C2CCCN2C(=O)NCC23CC4CC(CC(C4)C2)C3)no1 (centres unmarked) [3k] |  |  | > 5 | 
8 | Cc1ccc(-c2cc(CNC(=O)NC34CC5CC(C)(CC(C)(C5)C3)C4)no2)cc1 [4a] | 125 to 150 (≈ 49.2 to 59 µg/mL) | 0.0288 ± 0.0045 |  | 
9 | COc1ccc(-c2cc(CNC(=O)NC34CC5CC(C)(CC(C)(C5)C3)C4)no2)cc1 [4b] | 25 to 50 (≈ 10.2 to 20.5 µg/mL) | 0.018 ± 0.0029 |  | 
10 | CC12CC3CC(C)(C1)CC(NC(=O)NCc1cc(-c4ccco4)on1)(C3)C2 [4c] | 75 to 100 (≈ 27.7 to 36.9 µg/mL) | 0.0048 ± 0.0006 |  | 
11 | Cc1cc(CNC(=O)NC23CC4CC(C)(CC(C)(C4)C2)C3)on1 [4d] | 200 to 225 (≈ 63.5 to 71.4 µg/mL) | 0.111 ± 0.0103 |  | 10
12 | CC12CC3CC(C)(C1)CC(NC(=O)NCc1cc(-c4cccc(F)c4)no1)(C3)C2 [4g] | 75 to 100 (≈ 29.8 to 39.7 µg/mL) | 0.0142 ± 0.0025 |  | 
